{"source": "patent US5232922A", "about": "“Imidazole compounds, processes for their preparation, pharmaceuticals based on these compounds and some intermediates” (priority 1990, dated 1993)", "key": {"[1]": {"test_system": "photochemically-induced thrombosis in mesenterial arterioles", "assay": "Inhibition of photochemically-induced thrombosis in mesenterial arterioles", "type": "in vivo, rat", "protocol": "In this model, rats were anesthetized as described above under 2). The investigations were carried out on mesenterial arterioles having a diameter of 11 to 50 lm. A thrombosis was induced in a modification in accordance with a method known from the literature (Herrmann, K. H. Microvasc. Res. 26, 238-249, 1983) and is based on the photochemical release of singlet oxygen, which leads locally to an endothelial lesion. The animals to be investigated received an intravenous injection of 0.3 ml of a 10% strength solution of fluorescein in isothiocyanate--Dextran 70 (FITC--Dextran 70 s, Sigma, Munich). The arterole was looked for under the microscope and centered in the observation field. The FITC--Dextran in the blood vessel was then excited using a special lamp and filter device (excitation 490 nm, emission 510 nm). For evaluation of thrombus formation, the time was taken which extended from the point of excitation to the formation of a first thrombus on the wall. 5 vessels in each animal were examined in this manner."}, "laser-induced thrombosis [2]": {"test_system": "laser-induced thrombosis", "assay": "Inhibition of laser-induced thrombosis in atherosclerotic rabbits", "type": "in vivo, rabbit (atherosclerotic)", "details": "30 mg/kg daily for 14 days"}, "[3]": {"test_system": "laser-induced thrombosis in mesenterial arterioles", "assay": "Inhibition of laser-induced thrombosis in mesenterial arterioles of the rat", "type": "in vivo, rat (female Sprague-Dawley)", "details": "Rattus norvegicus, po; 10 mg/kg p.o.; read-out: Percentage change vs control (inhibition of laser-induced thrombosis)"}, "[4]": {"assay": "Acute toxicity (LD50 range)", "details": "mouse, in vivo, iv, single administration, NMRI mice, 7 days", "protocol": "The determination of the LD50 ranges was carried out in standard fashion by means of the mortality occurring in the course of 7 days in NMRI mice after single intravenous (i.v.) or intraperitoneal (i.p.) administration (NMRI=NIH Medical Research Institute)."}, "laser-induced thrombosis [5]": {"test_system": "laser-induced thrombosis", "assay": "Inhibition of laser-induced thrombosis in hyperlipidemic, spontaneously hypertensive, stroke-prone rats", "type": "in vivo, rat (hyperlipidemic hypertensive)"}, "[6]": {"test_system": "skeletal muscle of the rat (chronic ischemic)", "assay": "Effect on the contractility of the skeletal muscle after chronic ischemia (tiring index)", "type": "in vivo, rat (male Wistar)", "details": "6 mg/kg p.o. over 7 days, n = 4-6", "source_text": "1) Effect on the Contractility of the Skeletal Muscle After Chronic Ischemia\nIn recent years, a marked change has taken place in ideas about the pathophysiology of chronic peripheral arterial occlusive disease as scientific interest has to an increasing extent shifted from the macrocirculation to the microcirculation. Disturbances in the microcirculation therefore manifest themselves in an undersupply of substrates with tissue ischemia resulting therefrom which, in turn, leads to an impairment in the function of the extremity concerned. The logical consequence of this is that the target organ skeletal muscle comes more and more into the forefront. […] The clinical activity is in fact also consistently determined in humans with the aid of the painless walking distance on the moving walkway.\nMale Wistar rats having a body weight of 380 to 410 g were used as experimental animals. Under hexobarbital anesthesia (®Evipan--sodium, 200 mg/kg BW (=body weight) i.p.), a unilateral ligature of the right femoral artery was applied to the animals in the groin. After sprinkling penicillin sulfonamide powder for antibiotic wound care, the small operation wound was closed and the animals were continuously observed until they were completely awake. One week later, the administration of substance began by oral administration using a stomach tube (6 mg/kg BW, carboxymethylcellulose-sodium suspension) and was continued for 7 days (single administration per day, about 7h30 to 8h30). The contractility was measured 24 h after the last administration of substance in order to exclude acute effects, to be precise by the following experimental protocol:\nSuperfusion with physiological saline solution (37° C.) was used to avoid drying out and cooling. The mean arterial blood pressure was recorded continuously via Statham (=blood pressure measuring device) by means of a cannulated caroted artery to control the physiological status of the animals during the experiment. All animals breathed spontaneously by means of an inserted tracheal tube.\nAfter these preparations, the muscle was made to contract (Stimulator I, Hugo Sachs, Federal Republic of Germany) by direct electrical stimulation (2.5 mA, 2 Hz). The absolute contractility in grams at various times of stimulation was used as the measured parameter. […] If the maximum contractility at the start of stimulation is now divided by the residual force remaining after 5 minutes' tiring stimulation, a \"tiring index TI\" for the muscle concerned can be calculated; the ability to tire here is larger the larger TI is numerically.\n4 to 6 individual experiments were carried out for each test preparation."}, "[7]": {"test_system": "capillary bed of the skeletal muscle of the rat", "assay": "Laser-Doppler flow measurement of erythrocyte flux in acutely ischemic skeletal muscle", "type": "in vivo, rat (male Wistar)", "details": "during occlusion", "protocol": "Using laser-Doppler flow measurements (LDF), the erythrocyte flux (the number of cells flowing past under the laser beam x their velocity) can be measured in a noninvasive and continuous manner in the capillary bed of the skeletal muscle of the rat (perimed PF2 laser-Doppler flowmeter, Perimed, Sweden). […] The apparatus was set as follows: 12 kHz, gain 10, time constant 1.5 sec, 37° C. The right femoral artery of male Wistar rats having a body weight of 380-430 g was exposed and the skin and the connective tissue was dissected away over a small muscle area (anterior tibia). The probe was placed about 1 mm above this area. […] At this point, the test substances were infused intravenously in aqueous solution (0.03 and 0.6 mg/kg/min). The maximum percentage increase in the erythrocyte flux after administration of substance during the occlusion (see also Okyayuz-Baklouti, I., European J. of Pharmacology, 166: 75-86, 1989) was used as the measuring parameter for the substance activity. […] 3-7 animals were employed per preparation and dose."}, "acutely ischemic muscle": {"test_system": "acutely ischemic muscle", "assay": "Contractility in the acutely ischemic muscle", "type": "in vivo", "protocol": "The contractility in the acutely ischemic muscle was measured in a similar experimental procedure, as described under 1). The muscle, initially normally supplied with blood, was made to contract isometrically by direct electrical stimulation (1.2 Hz, 2.5 mA). The right femoral artery was then occluded for 5 min by means of a clamp. […] The vessel was then reopened and the starting contractility before the first occlusion was attained. During the second occlusion which then followed, the preparations to be tested were administered intravenously in aqueous solution via the jugular vein. 4-8 animals were employed per preparation and dose. The decrease in the contractility during occlusion with and without substance administration was compared and the percentage change was used to evaluate the substance activity. The substances according to the invention, for example the compound of Example 7, were also remarkable in this test for outstanding effects."}}, "data": [{"smiles": "Cn1cnc(S(=O)(=O)NCCCN2CCOCC2)c1", "note": "[Example 7, N-(3-Morpholinopropyl)-1-methyl-4-imidazolesulfonamide]", "values": [{"measurement": "inhibition of photochemically-induced thrombosis", "setting": "[1]; 1 mg/kg p.o.", "value": 69, "unit": "%"}, {"measurement": "inhibition of photochemically-induced thrombosis", "setting": "[1]; 3 mg/kg i.v.", "value": 36, "unit": "%"}, {"measurement": "inhibition of photochemically-induced thrombosis", "setting": "[1]; 3 mg/kg p.o.", "value": 75, "unit": "%"}, {"measurement": "inhibition of photochemically-induced thrombosis", "setting": "[1]; 10 mg/kg i.v.", "value": 56, "unit": "%"}, {"measurement": "inhibition of photochemically-induced thrombosis", "setting": "[1]; 10 mg/kg p.o.", "value": 130, "unit": "%"}, {"measurement": "inhibition of photochemically-induced thrombosis (in words)", "setting": "[1]; rat, in vivo", "value": "inhibited in a dose-dependent and statistically significant manner"}, {"measurement": "inhibition of laser-induced thrombosis", "setting": "laser-induced thrombosis [2]", "value": 36, "unit": "%"}, {"measurement": "inhibition in vivo at 10 mg/kg", "setting": "[3]", "value": 36, "unit": "%"}, {"measurement": "LD50 at 168 h", "setting": "[4]", "value": "> 100", "unit": "mg/kg"}, {"measurement": "inhibition of laser-induced thrombosis", "setting": "laser-induced thrombosis [5]; 10 mg/kg daily for 7 days", "value": 18, "unit": "%"}, {"measurement": "inhibition of laser-induced thrombosis", "setting": "laser-induced thrombosis [5]; 30 mg/kg daily for 7 days", "value": 32, "unit": "%"}, {"measurement": "TI of ischemic treated muscle", "setting": "[6]; tiring index = maximum contractility / residual force after 5 min stimulation", "value": 2.79}, {"measurement": "change in vivo at 6 mg/kg", "setting": "[6]; Rattus norvegicus, po, 168 h, smaller value = more effective, read-out: Percentage change (TI of ischemic treated muscle vs TI of normal non-treated muscle)", "value": 0.3, "unit": "%"}, {"measurement": "maximum percentage increase in the erythrocyte flux", "setting": "[7]; 0.03 mg/kg/min i.v. infusion", "value": "+53.3%"}, {"measurement": "maximum percentage increase in the erythrocyte flux", "setting": "[7]; 0.6 mg/kg/min i.v. infusion", "value": "+80.6%"}, {"measurement": "improvement of contractility in the acutely ischemic muscle", "setting": "acutely ischemic muscle; 0.03 mg/kg/min i.v.", "value": "+17.2%"}, {"measurement": "improvement of contractility in the acutely ischemic muscle", "setting": "acutely ischemic muscle; 0.3 mg/kg/min i.v.", "value": "+25.2%"}]}]}
